# Data from patent US20020137929A1, “1 - (3-heterocyclylphenyl) isothiourea, -isourea, -guanidine and -amidine herbicidal agents” (Intellectual Property Department, BASF Aktiengesellschaft, priority 1998, published 2002).
# Tests used:
# [1] = tested on: CASOB (Sicklepod); assay: Postemergence herbicidal evaluation; assay type: in vivo, Cassia obtusifolia; settings: postemergence
# In short: (§1)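 Compound is applied as a foliar spray to seedlings about two weeks old, formulated in equal parts acetone and water with 0.5% TWEEN 20 and delivered at 40 psi to give about 0.0156–0.500 kg per hectare. Injury is rated visually 0–9 after four to five weeks.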
# [2] = tested on: CHEAL (Lambsquarters, Common); assay: Postemergence herbicidal evaluation; assay type: in vivo, Chenopodium album; settings: postemergence
# In short: as §1
# [3] = tested on: GALAP (Galium); assay: Postemergence herbicidal evaluation; assay type: in vivo, Galium aparine; settings: postemergence
# In short: as §1
# [4] = tested on: ORYSAT (Rice, Tebonnet); assay: Postemergence herbicidal evaluation; assay type: in vivo, Oryza sativa, (L.) Tebonnet; settings: postemergence
# In short: as §1
# [5] = tested on: ZEAMX (Corn, Field); assay: Postemergence herbicidal evaluation; assay type: in vivo, Zea mays; settings: postemergence
# In short: as §1
# [6] = tested on: AMBEL (Ragweed, Common); assay: Preemergence herbicidal evaluation; assay type: in vivo, Ambrosia artemisifolia; settings: preemergence, rated 4-5 weeks after treatment, 0-9 scale
# In short: (§2)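 Preemergence soil application of compound, sprayed in aqueous acetone at rates equivalent to about 0.0156 to 0.500 kg per hectare onto freshly sown cups. Plant response was judged by eye on a 0-9 scale four to five weeks later.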
# [7] = tested on: SETVI (Foxtail, Green); assay: Preemergence herbicidal evaluation; assay type: in vivo, Setaria viridis; settings: preemergence, rated 4-5 weeks after treatment, 0-9 scale
# In short: as §2
# [8] = tested on: GLXMAW (Soybean, Williams); assay: Preemergence herbicidal evaluation; assay type: in vivo, Glycine max, (L.) Merr. cv Williams; settings: preemergence, rated 4-5 weeks after treatment, 0-9 scale
# In short: as §2
# [9] = tested on: ORYSAT (Rice, Tebonnet); assay: Preemergence herbicidal evaluation; assay type: in vivo, Oryza sativa, (L.) Tebonnet; settings: preemergence, rated 4-5 weeks after treatment, 0-9 scale
# In short: as §2
# [10] = tested on: CYPSE (Flatsedge); assay: Preemergence weed control under flooded paddy conditions; assay type: in vivo, Cyperus serotinus; settings: rated 3-4 weeks after treatment
# In short: (§3)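 Herbicidal effect is scored visually on a 0-9 scale against an untreated control, three to four weeks after compounds are pipetted into the flood water (1.5 to 3 cm deep) over seeds planted in silt loam at 0.5 cm depth. Rates: about 0.0313 to 0.500 kg/ha.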
# [11] = tested on: MOOVA (Monochoria); assay: as above; assay type: in vivo, Monochoria vaginalis; settings: rated 3-4 weeks after treatment
# In short: as §3
# [12] = tested on: CYPIR (Rice Flatsedge); assay: Postemergence weed control under flooded paddy conditions; assay type: in vivo, Cyperus iria; settings: postemergence weeds, rated 3 to 4 weeks after treatment
# In short: (§4)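 Weeds 3 to 5 cm tall and rice seedlings at the 1.5 to 2.5 leaf stage were flooded, with water held 1.5 to 3 cm above the soil. Compounds in 50/50 v/v aqueous/acetone went into the flood water at about 0.0313 to 0.500 kg/ha. Visual 0-9 ratings versus control were made 3 to 4 weeks later.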
# [13] = tested on: CYPSE (Flatsedge); assay: as above; assay type: in vivo, Cyperus serotinus; settings: postemergence weeds, rated 3 to 4 weeks after treatment
# In short: as §4
# [14] = tested on: SAGPY (Arrowhead (Pygmaea)); assay: as above; assay type: in vivo, Sagittaria pygmaea; settings: postemergence weeds, rated 3 to 4 weeks after treatment
# In short: as §4
smiles,measurement,setting,value
"C=CCN1C(=O)C(CC(=O)NC)SC1=Nc1cc(-n2c(=O)cc(C(F)(F)F)n(C)c2=O)c(F)cc1Cl (centres unmarked) [Compound 84, 3-Allyl-2-{{2-chloro-5-[3,6-dihydro-3-methyl-2,6-dioxo-4-(trifluoromethyl)-1(2H)-pyrimidinyl]-4-fluorophenyl}imino}-N-methyl-4-oxo-5-thiazolidineacetamide]",CASOB herbicidal rating,[1]; rate 0.0156 kg/ha,0.0
same,CASOB herbicidal rating,[1]; rate 0.0313 kg/ha,0.0
same,CASOB herbicidal rating,[1]; rate 0.0625 kg/ha,0.0
same,CASOB herbicidal rating,[1]; rate 0.1250 kg/ha,3.0
same,CHEAL herbicidal rating,[2]; rate 0.0156 kg/ha,6.0
same,CHEAL herbicidal rating,[2]; rate 0.0313 kg/ha,7.0
same,CHEAL herbicidal rating,[2]; rate 0.0625 kg/ha,9.0
same,CHEAL herbicidal rating,[2]; rate 0.1250 kg/ha,9.0
same,GALAP herbicidal rating,[3]; rate 0.0156 kg/ha,1.0
same,GALAP herbicidal rating,[3]; rate 0.0313 kg/ha,2.0
same,GALAP herbicidal rating,[3]; rate 0.0625 kg/ha,4.0
same,GALAP herbicidal rating,[3]; rate 0.1250 kg/ha,7.0
same,ORYSAT herbicidal rating,[4]; rate 0.0156 kg/ha,0.5
same,ORYSAT herbicidal rating,[4]; rate 0.0313 kg/ha,1.0
same,ORYSAT herbicidal rating,[4]; rate 0.0625 kg/ha,1.5
same,ORYSAT herbicidal rating,[4]; rate 0.1250 kg/ha,3.0
same,ZEAMX herbicidal rating,[5]; rate 0.0156 kg/ha,4.0
same,ZEAMX herbicidal rating,[5]; rate 0.0313 kg/ha,4.0
same,ZEAMX herbicidal rating,[5]; rate 0.0625 kg/ha,4.5
same,ZEAMX herbicidal rating,[5]; rate 0.1250 kg/ha,5.0
same,AMBEL rating,[6]; 0.0156 kg/ha,0.0
same,AMBEL rating,[6]; 0.0313 kg/ha,3.0
same,AMBEL rating,[6]; 0.0625 kg/ha,4.0
same,AMBEL rating,[6]; 0.1250 kg/ha,9.0
same,AMBEL rating,[6]; 0.2500 kg/ha,9.0
same,AMBEL rating,[6]; 0.5000 kg/ha,9.0
same,SETVI rating,[7]; 0.0156 kg/ha,0.0
same,SETVI rating,[7]; 0.0313 kg/ha,0.0
same,SETVI rating,[7]; 0.0625 kg/ha,0.0
same,SETVI rating,[7]; 0.1250 kg/ha,3.0
same,SETVI rating,[7]; 0.2500 kg/ha,9.0
same,SETVI rating,[7]; 0.5000 kg/ha,9.0
same,GLXMAW rating,[8]; 0.0156 kg/ha,0.0
same,GLXMAW rating,[8]; 0.0313 kg/ha,0.0
same,GLXMAW rating,[8]; 0.0625 kg/ha,0.0
same,GLXMAW rating,[8]; 0.1250 kg/ha,3.0
same,GLXMAW rating,[8]; 0.2500 kg/ha,5.0
same,GLXMAW rating,[8]; 0.5000 kg/ha,7.0
same,ORYSAT rating,[9]; 0.0156 kg/ha,0.0
same,ORYSAT rating,[9]; 0.0313 kg/ha,0.0
same,ORYSAT rating,[9]; 0.0625 kg/ha,0.0
same,ORYSAT rating,[9]; 0.1250 kg/ha,0.0
same,ORYSAT rating,[9]; 0.2500 kg/ha,3.0
same,ORYSAT rating,[9]; 0.5000 kg/ha,9.0
same,CYPSE herbicidal effect rating,[10]; 0.0313 kg/ha,0.0
same,CYPSE herbicidal effect rating,[10]; 0.0625 kg/ha,3.0
same,CYPSE herbicidal effect rating,[10]; 0.1250 kg/ha,9.0
same,CYPSE herbicidal effect rating,[10]; 0.2500 kg/ha,9.0
same,MOOVA herbicidal effect rating,[11]; 0.0313 kg/ha,9.0
same,MOOVA herbicidal effect rating,[11]; 0.0625 kg/ha,9.0
same,MOOVA herbicidal effect rating,[11]; 0.1250 kg/ha,9.0
same,MOOVA herbicidal effect rating,[11]; 0.2500 kg/ha,9.0
same,Herbicidal rating CYPIR,[12]; Rate 0.0313 kg/ha,3.0
same,Herbicidal rating CYPIR,[12]; Rate 0.0625 kg/ha,7.0
same,Herbicidal rating CYPIR,[12]; Rate 0.1250 kg/ha,9.0
same,Herbicidal rating CYPIR,[12]; Rate 0.2500 kg/ha,9.0
same,Herbicidal rating CYPSE,[13]; Rate 0.0313 kg/ha,0.0
same,Herbicidal rating CYPSE,[13]; Rate 0.0625 kg/ha,3.0
same,Herbicidal rating CYPSE,[13]; Rate 0.1250 kg/ha,9.0
same,Herbicidal rating CYPSE,[13]; Rate 0.2500 kg/ha,9.0
same,Herbicidal rating SAGPY,[14]; Rate 0.0313 kg/ha,2.0
same,Herbicidal rating SAGPY,[14]; Rate 0.0625 kg/ha,6.0
same,Herbicidal rating SAGPY,[14]; Rate 0.1250 kg/ha,7.0
same,Herbicidal rating SAGPY,[14]; Rate 0.2500 kg/ha,9.0
"C=CCN1C(=O)C(CC(=O)OCCF)SC1=Nc1cc(-n2c(=O)cc(C(F)(F)F)n(C)c2=O)c(F)cc1Cl (centres unmarked) [Compound 86, 2-Fluoroethyl 3-allyl-2-{{2-chloro-5-[3,6-dihydro-3-methyl-2,6-dioxo-4-(trifluoromethyl)-1(2H)-pyrimidinyl]-4-fluorophenyl}imino}-4-oxo-5-thiazolidineacetate]",CASOB herbicidal rating,[1]; rate 0.0156 kg/ha,1.0
same,CASOB herbicidal rating,[1]; rate 0.0313 kg/ha,2.0
same,CASOB herbicidal rating,[1]; rate 0.0625 kg/ha,7.0
same,CASOB herbicidal rating,[1]; rate 0.1250 kg/ha,9.0
same,CHEAL herbicidal rating,[2]; rate 0.0156 kg/ha,9.0
same,CHEAL herbicidal rating,[2]; rate 0.0313 kg/ha,9.0
same,CHEAL herbicidal rating,[2]; rate 0.0625 kg/ha,9.0
same,CHEAL herbicidal rating,[2]; rate 0.1250 kg/ha,9.0
same,GALAP herbicidal rating,[3]; rate 0.0156 kg/ha,2.0
same,GALAP herbicidal rating,[3]; rate 0.0313 kg/ha,5.0
same,GALAP herbicidal rating,[3]; rate 0.0625 kg/ha,9.0
same,GALAP herbicidal rating,[3]; rate 0.1250 kg/ha,9.0
same,ORYSAT herbicidal rating,[4]; rate 0.0156 kg/ha,3.0
same,ORYSAT herbicidal rating,[4]; rate 0.0313 kg/ha,7.5
same,ORYSAT herbicidal rating,[4]; rate 0.0625 kg/ha,7.5
same,ORYSAT herbicidal rating,[4]; rate 0.1250 kg/ha,8.5
same,ZEAMX herbicidal rating,[5]; rate 0.0156 kg/ha,7.5
same,ZEAMX herbicidal rating,[5]; rate 0.0313 kg/ha,8.0
same,ZEAMX herbicidal rating,[5]; rate 0.0625 kg/ha,8.5
same,ZEAMX herbicidal rating,[5]; rate 0.1250 kg/ha,9.0
same,AMBEL rating,[6]; 0.0156 kg/ha,0.0
same,AMBEL rating,[6]; 0.0313 kg/ha,0.0
same,AMBEL rating,[6]; 0.0625 kg/ha,6.0
same,AMBEL rating,[6]; 0.1250 kg/ha,9.0
same,AMBEL rating,[6]; 0.2500 kg/ha,9.0
same,AMBEL rating,[6]; 0.5000 kg/ha,9.0
same,SETVI rating,[7]; 0.0156 kg/ha,0.0
same,SETVI rating,[7]; 0.0313 kg/ha,0.0
same,SETVI rating,[7]; 0.0625 kg/ha,4.0
same,SETVI rating,[7]; 0.1250 kg/ha,8.0
same,SETVI rating,[7]; 0.2500 kg/ha,9.0
same,SETVI rating,[7]; 0.5000 kg/ha,9.0
same,GLXMAW rating,[8]; 0.0156 kg/ha,0.0
same,GLXMAW rating,[8]; 0.0313 kg/ha,0.0
same,GLXMAW rating,[8]; 0.0625 kg/ha,0.0
same,GLXMAW rating,[8]; 0.1250 kg/ha,0.0
same,GLXMAW rating,[8]; 0.2500 kg/ha,4.0
same,GLXMAW rating,[8]; 0.5000 kg/ha,8.0
same,ORYSAT rating,[9]; 0.0156 kg/ha,0.0
same,ORYSAT rating,[9]; 0.0313 kg/ha,0.0
same,ORYSAT rating,[9]; 0.0625 kg/ha,0.0
same,ORYSAT rating,[9]; 0.1250 kg/ha,0.0
same,ORYSAT rating,[9]; 0.2500 kg/ha,2.0
same,ORYSAT rating,[9]; 0.5000 kg/ha,6.0
same,CYPSE herbicidal effect rating,[10]; 0.0313 kg/ha,0.0
same,CYPSE herbicidal effect rating,[10]; 0.0625 kg/ha,0.0
same,CYPSE herbicidal effect rating,[10]; 0.1250 kg/ha,3.0
same,CYPSE herbicidal effect rating,[10]; 0.2500 kg/ha,9.0
same,MOOVA herbicidal effect rating,[11]; 0.0313 kg/ha,9.0
same,MOOVA herbicidal effect rating,[11]; 0.0625 kg/ha,9.0
same,MOOVA herbicidal effect rating,[11]; 0.1250 kg/ha,9.0
same,MOOVA herbicidal effect rating,[11]; 0.2500 kg/ha,9.0
same,Herbicidal rating CYPIR,[12]; Rate 0.0313 kg/ha,3.0
same,Herbicidal rating CYPIR,[12]; Rate 0.0625 kg/ha,7.0
same,Herbicidal rating CYPIR,[12]; Rate 0.1250 kg/ha,8.0
same,Herbicidal rating CYPIR,[12]; Rate 0.2500 kg/ha,9.0
same,Herbicidal rating CYPSE,[13]; Rate 0.0313 kg/ha,0.0
same,Herbicidal rating CYPSE,[13]; Rate 0.0625 kg/ha,0.0
same,Herbicidal rating CYPSE,[13]; Rate 0.1250 kg/ha,3.0
same,Herbicidal rating CYPSE,[13]; Rate 0.2500 kg/ha,9.0
same,Herbicidal rating SAGPY,[14]; Rate 0.0313 kg/ha,5.0
same,Herbicidal rating SAGPY,[14]; Rate 0.0625 kg/ha,9.0
same,Herbicidal rating SAGPY,[14]; Rate 0.1250 kg/ha,9.0
same,Herbicidal rating SAGPY,[14]; Rate 0.2500 kg/ha,9.0
